Data published in patent US6867200B1, “(Hetero)aryl-bicyclic heteroaryl derivatives, their preparation and their use as protease inhibitors” (Axys Pharmaceuticals, Inc., priority 1998, dated 2005).
pKi: −log10 of the molar value.

Tests used:
human Urokinase = target: T1, human Urokinase (Homo sapiens, UniProt P00749); assay: Urokinase (uPA) inhibition, chromogenic substrate hydrolysis, Ki app.; assay type: biochemical
T1 construct: purchased American Diagnostica, CT, USA

human Factor Xa = target: T2, human Factor Xa (Homo sapiens, UniProt P00742); assay: Factor Xa inhibition, chromogenic substrate hydrolysis, Ki app.; assay type: biochemical; details: read-out: FXa Ki
T2 construct: purified human Factor Xa; purchased Haematologic Technologies, VT, USA
T2 sequence (P00742 235-488 limits assumed): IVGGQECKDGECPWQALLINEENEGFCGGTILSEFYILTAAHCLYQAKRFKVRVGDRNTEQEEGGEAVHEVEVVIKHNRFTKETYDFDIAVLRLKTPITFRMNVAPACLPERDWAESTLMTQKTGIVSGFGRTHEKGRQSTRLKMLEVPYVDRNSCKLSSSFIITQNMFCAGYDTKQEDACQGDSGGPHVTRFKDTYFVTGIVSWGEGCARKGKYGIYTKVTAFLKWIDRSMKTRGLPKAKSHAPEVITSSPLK
T2 sequence (P00742 41-179 partner limits assumed): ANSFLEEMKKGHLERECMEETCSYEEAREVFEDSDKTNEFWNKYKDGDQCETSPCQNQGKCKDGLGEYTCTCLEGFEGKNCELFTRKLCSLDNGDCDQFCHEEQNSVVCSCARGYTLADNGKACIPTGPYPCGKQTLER

Row | pKi (human Urokinase) | pKi (human Factor Xa) | Structure (SMILES)
1 | 6.59 | 9.21 | N=C(N)c1ccc2[nH]c(-c3cc(CCC(=O)O)cc(Br)c3O)c(Cc3ccccc3)c2c1 [Ex. 802, 3-[3-(3-Benzyl-5-carbamimidoyl-1H-indol-2-yl)-5-bromo-4-hydroxy-phenyl]-propionic acid]
2 |  | 6.34 | N=C(N)c1ccc2nc(-c3ccc(OCC(=O)NCc4cccc5ccccc45)cc3O)[nH]c2c1 [compound 258, 2-[4-(6-Carbamimidoyl-1H-benzoimidazol-2-yl)-3-hydroxy-phenoxy]-N-naphthalen-1-ylmethyl-acetamide]
3 | 7.19 | 6.53 | Cc1cc(-c2ccccc2)c(O)c(-c2cc3cc(C(=N)N)ccc3[nH]2)c1 [compound 820]
4 | 8.40 | 5.27 | N=C(N)c1cc2cc(-c3cc(CC(=O)N4CCS(=O)(=O)CC4)cc(-c4ccccc4)c3O)[nH]c2cc1Cl [compound 860]
